Columns and labels:
[1] = test system: MP46 (GNAQmut) uveal melanoma xenograft; experiment: Patient derived uveal melanoma xenograft model MP46; format: in vivo, female SCID mice; conditions: 35 days post dosing
Source text: The anti-tumor activity and tolerability of Compound I (i.e., LXS196) and the MDM2 inhibitor (Compound III or its salt thereof) was investigated in vivo using two patient derived uveal melanoma xenograft models, MP46 (GNAQmut) and MP55 (GNA11mut/BAP1 null).
(§1) MP46 and MP55 uveal melanoma tumors were established in female SCID mice by subcutaneous implantation of 3×3×3 mm tumor fragments into the flank of each mouse. When tumors reached approximately 100 mm^3, mice were randomized according to tumor volume into treatment groups (n=8-10/group). Test agents were administered orally once (QD) or twice daily (BID) at the dose levels indicated. Tumor volumes of treatment groups are plotted from the time the treatment groups were randomized, and dosing commenced.

[2] = test system: MP55 (GNA11mut/BAP1 null) uveal melanoma xenograft; experiment: Patient derived uveal melanoma xenograft model MP55; format: in vivo, female SCID mice
Source text: as §1, with “The anti-tumor activity and tolerability of Compound […]196) and the MDM2 inhibitor (Compound III or its salt thereof) was investigated in vivo using two patient derived uveal melanoma xenograft models, MP46 (GNAQmut) and MP55 (GNA11mut/BAP1 null). MP46” for “MP46”

[3] = Phase I trial: pharmacokinetic (PK) studies; format: in vivo, human
Description: (§2) A phase 1, multicenter, open-label, single-arm study of Compound I was performed in patients with metastatic uveal melanoma. A Bayesian logistic regression model, employing the escalation with overdose control principle, was used to guide the dose escalation and to estimate the maximum tolerated dose (MTD)/recommended dose for expansion (RDE). Safety was described using incidence of adverse events (AEs) by relation and severity of the AE graded according to the Common Terminology Criteria for AEs (CTCAE, v4.03). Overall response rate was defined as per Response Evaluation Criteria in Solid Tumors (RECIST, v1.1).
(§3) LXS196 led to reduction of phosphorylated myristoylated, alanine-rich C kinase substrate (pMARCKS) and phosphorylated PKC delta (pPKC delta), evident of target engagement in on-treatment tumor biopsies.

[4] = Phase I trial of Compound I in patients with metastatic uveal melanoma: safety, DLT, MTD/RDE; format: in vivo
Description: as §2
(§4) Patients eligible for inclusion in this study have to meet all of the following key criteria: • Metastatic uveal melanoma (histologically or cytologically confirmed) that is judged to be progressive; patients may be treatment naive or have had any number of lines of prior therapy. • Measurable disease, defined as at least one lesion that can be accurately measured in at least one dimension (longest diameter to be recorded) as >20 mm with conventional techniques or as >10 mm with CT scan. • ECOG performance status ≤1
Patients eligible for this study must not meet any of the following criteria: • Malignant disease other than that being treated in this study • Symptomatic or untreated leptomeningeal or brain metastases or spinal cord compression. Treated brain metastases must have been stable for at least 1 month. • Impaired cardiac function or clinically significant cardiac diseases • Patients with abnormal laboratory values as defined by the protocol • Systemic anti-cancer therapy within 2 weeks of the first dose of study treatment. For cytotoxic agents that have major delayed toxicity, e.g. mitomycin C and nitrosoureas, and for anti-PD-1 or PD-L1 antibodies 4 weeks is indicated as the washout period. For patients receiving a CTLA-4 antagonist or vaccine as anticancer therapy, 6 weeks is indicated as the washout period. Patients must have recovered or stabilized from toxicities related to their previous treatment except for alopecia.
As of the data of Jun. 12, 2017, 55 patients received Compound I (i.e., LXS196) at doses ranging from 100 mg to 1000 mg once daily (QD; 38 patients or “pts”) and 200 mg to 400 mg twice daily (BID; 17 pts). Dose limiting toxicities (DLTs) were reported in 7 of 38 pts (QD schedule) and in 1 of 12 pts (BID schedule). The most common DLT was hypotension, manageable with LXS196 interruption and dose reduction. MTDs were determined at 500 mg QD and 400 mg BID. Due to better overall tolerability the RDE is 300 mg BID. Most common AEs (all grade, in ≥20% of pts) suspected related to LXS196 in pts across both schedules (n=55) were nausea (58.2%), diarrhea (32.7%), vomiting (25.5%), hypotension (25.5%), fatigue (20%) and asthenia (20%). The majority of GI and constitutional AEs were grade (gr) ½. Gr ¾ AEs suspected related to LXS196 were reported in 12 pts (21.8%), the most common being hypotension (10.9%). All other gr ¾ AEs occurred in ≤2 pts (3.6%) each.

[5] = test system: metastatic uveal melanoma; experiment: Phase I trial: tumor response per RECIST v1.1; format: in vivo, human; conditions: in 68 evaluable pts
Description: as §2, §4
In 68 evaluable pts, 6 had confirmed partial responses (PR) per RECIST v 1.1 (300 mg QD, 500 mg QD, 200 mg BID, 2 at 300 mg BID, 400 mg BID). A further 45 pts had stable disease as best overall response. […]

[6] = test system: phosphorylated myristoylated, alanine-rich C kinase substrate (pMARCKS); experiment: Phase I trial: target engagement in on-treatment tumor biopsies (pMARCKS); format: in vivo, human
Source text: as §3

[7] = test system: phosphorylated PKC delta (pPKC delta); experiment: Phase I trial: target engagement in on-treatment tumor biopsies (pPKC delta); format: in vivo, human
Source text: as §3

UM cell lines = conditions: with RITA and Topotecan; cited from earlier work

With COc1cc2c(cc1OC(C)C)[C@H](c1ccc(Cl)cc1)N(c1ccc(N(C)C[C@H]3CC[C@H](N4CCN(C)C(=O)C4)CC3)cc1)C(=O)C2 [Compound III, (S)-1-(4-chloro-phenyl)-7-isopropoxy-6-methoxy-2-(4-{methyl-[4-(4-methyl-3-oxo-piperazin-1-yl)-trans-cyclohexylmethyl]-amino}-phenyl)-1,4-dihydro-2H-isoquinolin-3-one] the “treatment/control (T/C)” value ([1]; MP46, 100 mg/kg QD oral) was 39% and the T/C ([2]; MP55, 100 mg/kg QD oral) was 20%.

With CC1(N)CCN(c2cccnc2NC(=O)c2nc(-c3ncccc3C(F)(F)F)cnc2N)CC1 [LXS196, 3-amino-N-(3-(4-amino-4-methylpiperidin-1-yl)pyridin-2-yl)-6-(3-(trifluoromethyl)pyridin-2-yl)pyrazine-2-carboxamide] the Exposure ([3]; doses above 300 mg QD and 200 mg BID) was “in the efficacious range from preclinical projections”, the half-life ([3]; human, in vivo, oral, consistent across different doses, read-out: terminal T½ (converted)) was about 10 h and the Tmax ([3]; human, in vivo, post dose, patients, oral) was about 1 h. For the same compound, the regression ([1]; MP46, 120 mg/kg BID oral) was 63%, the “AE asthenia, all grade, suspected related” value ([4]; human, in vivo) was 20% and the “AE diarrhea, all grade, suspected related” value ([4]; human, in vivo) was 32.7%. The “AE fatigue, all grade, suspected related” value ([4]; human, in vivo) was 20%, the “AE hypotension, all grade, suspected related” value ([4]; human, in vivo) was 25.5% and the “AE nausea, all grade, suspected related” value ([4]; human, in vivo) was 58.2%. The “AE vomiting, all grade, suspected related” value ([4]; human, in vivo) was 25.5%, the “All other gr ¾ AEs, each, number of patients” value ([4]; human, in vivo) was at most 2 pts and the “All other gr ¾ AEs, each, share of patients” value ([4]; human, in vivo) was at most 3.6%. The “Gr ¾ AEs suspected related, number of patients” value ([4]; human, in vivo) was 12 pts, the “Gr ¾ AEs suspected related, share of patients” value ([4]; human, in vivo) was 21.8% and the “Gr ¾ hypotension (most common gr ¾ AE)” value ([4]; human, in vivo) was 10.9%. The “Grade of the majority of GI and constitutional AEs” value ([4]; human, in vivo) was “grade (gr) ½”, the “Most common DLT” value ([4]; human, in vivo) was “hypotension” and the “RDE (recommended dose for expansion)” value ([4]; human, in vivo) was 300 mg BID. For the same compound, the MTD ([4]; once daily schedule) was 500 mg QD, the MTD ([4]; twice daily schedule) was 400 mg BID and the T/C ([2]; MP55, 120 mg/kg BID oral) was 20%. For the same compound, the “Stable disease as best overall response” value [5] was 45 pts, the “Confirmed partial responses (PR) per RECIST v 1.1” value ([5]; 300 mg QD, 500 mg QD, 200 mg BID, 2 at 300 mg BID, 400 mg BID) was 6 pts and the “Effect on pMARCKS” value [6] was “reduction”. For the same compound, the “Effect on pPKC delta” value [7] was “reduction”.

In the case of COc1ccc(C2=N[C@@H](c3ccc(Cl)cc3)[C@@H](c3ccc(Cl)cc3)N2C(=O)N2CCNC(=O)C2)c(OC(C)C)c1 [Nutlin-3], the “Combination effect on growth inhibition” value (UM cell lines) is given as “synergistically”.

Reference: patent US12208097B2, “Protein kinase C inhibitors for treatment of uveal melanoma” (NOVARTIS AG, priority 2017, dated 2025)
